Test results taken from ChEMBL document CHEMBL1157744, “Small molecule antagonist of leukocyte function associated antigen-1 (LFA-1): structure-activity relationships leading to the identification of 6-((5S,9R)-9-(4-cyanophenyl)-3-(3,5-dichlorophenyl)-1-methyl-2,4-dioxo-1,3,7-triazaspiro[4.4]nonan-7-yl)nicotinic acid (BMS-688521)” (J Med Chem, 2010).
Calls of active or inactive are those of the source. No cut-off for these calls is given here.

Tests used:
in vivo [1] = conditions: rat, iv, 1 mg/kg
[2] = biological target: Integrin alpha-M (Homo sapiens) (UniProt P11215); conditions: THP-1, 10 uM
in vivo [3] = conditions: dog, iv, 1 mg/kg
Mus musculus [4] = organism: Mus musculus; conditions: in vivo, po, 5 mg/kg
Canis familiaris = organism: Canis familiaris; conditions: dog, in vivo, po, 5 mg/kg
Mus musculus [5] = organism: Mus musculus; conditions: BALB/c, 3 to 10 mg/kg
in vivo [6] = conditions: rat, iv, 1 mg/kg; remark: listed apart in the source
in vivo [7] = conditions: dog, iv, 1 mg/kg; remark: listed apart in the source
in vivo [8] = conditions: mouse, iv, 1 mg/kg
in vivo [9] = conditions: rat, iv, 1 mg/kg; remark: listed apart in the source
in vivo [10] = conditions: rat, po, 5 mg/kg
hERG (KCNH2) = hERG (KCNH2) (Homo sapiens, UniProt Q12809); test: in vitro
Sequence of hERG (KCNH2) (Q12809 whole entry): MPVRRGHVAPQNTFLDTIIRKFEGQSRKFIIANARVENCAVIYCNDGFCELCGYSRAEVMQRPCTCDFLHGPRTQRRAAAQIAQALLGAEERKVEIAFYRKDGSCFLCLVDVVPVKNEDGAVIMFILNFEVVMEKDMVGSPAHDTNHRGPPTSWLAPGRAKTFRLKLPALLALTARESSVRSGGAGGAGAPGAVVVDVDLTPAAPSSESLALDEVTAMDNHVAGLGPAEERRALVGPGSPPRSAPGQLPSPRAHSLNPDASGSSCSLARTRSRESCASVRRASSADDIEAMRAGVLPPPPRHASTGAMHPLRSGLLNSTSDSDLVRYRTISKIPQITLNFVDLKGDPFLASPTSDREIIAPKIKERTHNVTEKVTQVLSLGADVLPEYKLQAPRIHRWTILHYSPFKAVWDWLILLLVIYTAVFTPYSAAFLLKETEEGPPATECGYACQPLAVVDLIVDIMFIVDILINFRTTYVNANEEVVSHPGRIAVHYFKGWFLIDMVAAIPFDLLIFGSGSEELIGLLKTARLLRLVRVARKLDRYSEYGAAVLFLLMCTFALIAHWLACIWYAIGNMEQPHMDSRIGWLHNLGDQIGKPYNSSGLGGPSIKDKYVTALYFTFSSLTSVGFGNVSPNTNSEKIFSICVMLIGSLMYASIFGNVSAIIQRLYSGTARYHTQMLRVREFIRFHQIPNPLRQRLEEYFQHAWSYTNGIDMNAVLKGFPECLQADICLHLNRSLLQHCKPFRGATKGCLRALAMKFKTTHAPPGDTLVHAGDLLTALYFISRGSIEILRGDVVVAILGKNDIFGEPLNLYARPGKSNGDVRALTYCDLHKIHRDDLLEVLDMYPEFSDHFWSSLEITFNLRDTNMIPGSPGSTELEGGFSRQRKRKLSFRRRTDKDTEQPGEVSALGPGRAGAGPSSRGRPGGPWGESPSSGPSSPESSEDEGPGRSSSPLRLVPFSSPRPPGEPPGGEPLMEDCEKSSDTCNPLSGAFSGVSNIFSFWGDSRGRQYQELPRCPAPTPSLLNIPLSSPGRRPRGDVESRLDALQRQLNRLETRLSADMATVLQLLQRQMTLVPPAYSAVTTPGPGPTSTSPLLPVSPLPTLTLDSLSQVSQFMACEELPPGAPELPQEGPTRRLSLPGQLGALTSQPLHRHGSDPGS

[11] = biological target: T1, Integrin alpha-2/beta-3 (Homo sapiens) (UniProt P05106+P17301); conditions: 30 uM
Mus musculus [12] = organism: Mus musculus; conditions: BALB/c, 1 mg/kg
Rattus norvegicus = organism: Rattus norvegicus; conditions: in vivo, po, 5 mg/kg
in vivo [13] = conditions: mouse, plasma, po, 5 mg/kg
[14] = biological target: Integrin alpha-4/beta-1 (Homo sapiens) (UniProt P05556+P13612); conditions: Jurkat, 10 uM
in vivo [15] = conditions: dog, iv, 1 mg/kg; remark: listed apart in the source
in vivo [16] = conditions: mouse, po, 5 mg/kg
in vitro [17] = conditions: human, serum
in vivo [18] = conditions: mouse, iv, 1 mg/kg; remark: listed apart in the source
[19] = biological target: T1, Integrin alpha-2/beta-3 (Homo sapiens); conditions: 30 uM; remark: listed apart in the source
in vivo [20] = conditions: dog, iv, 1 mg/kg; remark: listed apart in the source
in vitro [21] = conditions: Purkinje fibers
in vivo [22] = conditions: dog, po, 5 mg/kg
in vivo [23] = conditions: dog, po, 5 mg/kg; remark: listed apart in the source
in vivo [24] = conditions: mouse, po, 5 mg/kg; remark: listed apart in the source
in vivo [25] = conditions: dog, plasma, po, 5 mg/kg
in vitro [26] = conditions: human, Caco-2
in vivo [27] = conditions: rat, iv, 1 mg/kg; remark: listed apart in the source
in vivo [28] = conditions: rat, plasma, po, 5 mg/kg
in vivo [29] = conditions: mouse, iv, 1 mg/kg; remark: listed apart in the source
in vivo [30] = conditions: mouse, iv, 1 mg/kg; remark: listed apart in the source
in vivo [31] = conditions: rat, po, 5 mg/kg; remark: listed apart in the source

CN1C(=O)N(c2cc(Cl)cc(Cl)c2)C(=O)[C@]12CN(c1ccc(C(=O)O)cn1)C[C@H]2c1ccc(C#N)cc1
clearance (in vivo [1]): 11 mL/min/kg
inhibition [2]: 18%
Vd (in vivo [3]): 0.2 L/kg
Tmax (Mus musculus [4]): 1 h
Tmax (Canis familiaris): 2.9 h
inhibition (Mus musculus [5]): Dose-dependent effect
MRT (in vivo [6]): 3.5 h
clearance (in vivo [7]): 0.5 mL/min/kg
Vd (in vivo [8]): 5.1 L/kg
Vd (in vivo [9]): 2.3 L/kg
bioavailability (in vivo [10]): 82%
inhibition at 30 µM (hERG (KCNH2)): 20%
inhibition [11]: 0%
inhibition (Mus musculus [12]): Active
Tmax (Rattus norvegicus): 1.7 h
AUC (in vivo [13]): 1.5 µM·h
inhibition [14]: 0%
half-life (in vivo [15]): 4.7 h
Cmax (in vivo [16]): 320 nM
fraction unbound (in vitro [17]): 0.05
MRT (in vivo [18]): 1.7 h
inhibition [19]: 0%
MRT (in vivo [20]): 6.9 h
inhibition at 30 µM (in vitro [21]): < 5%
bioavailability (in vivo [22]): 48%
Cmax (in vivo [23]): 22000 nM
bioavailability (in vivo [24]): 50%
AUC (in vivo [25]): 102 µM·h
Papp A→B (in vitro [26]): 14.8 ×10⁻⁶ cm/s
half-life (in vivo [27]): 3.3 h
AUC (in vivo [28]): 13 µM·h
clearance (in vivo [29]): 50 mL/min/kg
half-life (in vivo [30]): 1.6 h
Cmax (in vivo [31]): 2300 nM
